Drawing on ChEMBL document CHEMBL4834428 (J Med Chem, 2021), this text covers IC50 for 45 molecules.

A word on the IC50: it is the midpoint of a concentration-inhibition curve. A high value points to weaker potency in that assay.

Assay [1] concerns the target T1, NAD-dependent protein deacetylase sirtuin-1 (Homo sapiens, UniProt Q96EB6).
T1 sequence (Q96EB6 whole entry): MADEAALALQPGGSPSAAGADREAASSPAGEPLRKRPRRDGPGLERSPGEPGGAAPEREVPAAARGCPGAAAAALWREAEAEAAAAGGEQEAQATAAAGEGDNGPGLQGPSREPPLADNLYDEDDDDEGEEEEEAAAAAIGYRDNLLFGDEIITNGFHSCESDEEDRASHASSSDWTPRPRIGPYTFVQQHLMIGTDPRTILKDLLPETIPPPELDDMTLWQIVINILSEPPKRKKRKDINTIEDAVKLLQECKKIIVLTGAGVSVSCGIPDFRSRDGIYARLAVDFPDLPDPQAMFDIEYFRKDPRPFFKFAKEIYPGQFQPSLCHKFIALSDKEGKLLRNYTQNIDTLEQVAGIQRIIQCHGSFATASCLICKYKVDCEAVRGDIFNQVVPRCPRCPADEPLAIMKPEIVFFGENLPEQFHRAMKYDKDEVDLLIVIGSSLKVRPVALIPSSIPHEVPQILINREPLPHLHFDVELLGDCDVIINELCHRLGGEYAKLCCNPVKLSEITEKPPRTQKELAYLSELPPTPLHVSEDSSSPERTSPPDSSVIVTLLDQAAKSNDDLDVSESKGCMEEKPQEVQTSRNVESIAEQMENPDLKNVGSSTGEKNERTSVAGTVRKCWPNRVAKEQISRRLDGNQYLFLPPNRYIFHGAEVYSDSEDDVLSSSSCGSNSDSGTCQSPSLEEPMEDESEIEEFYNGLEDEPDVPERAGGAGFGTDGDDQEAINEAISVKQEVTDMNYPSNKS
Description: Inhibition of His6-tagged SIRT1 (unknown origin) expressed in Escherichia coli BL21 (DE3) preincubated for 15 mins followed by NAD+ addition and measured after 30 mins by FLucK529Ac based luminescence assay

For assay [2], the target named is T2, NAD-dependent protein deacetylase sirtuin-2 (Homo sapiens, UniProt Q8IXJ6).
T2 sequence (Q8IXJ6 whole entry): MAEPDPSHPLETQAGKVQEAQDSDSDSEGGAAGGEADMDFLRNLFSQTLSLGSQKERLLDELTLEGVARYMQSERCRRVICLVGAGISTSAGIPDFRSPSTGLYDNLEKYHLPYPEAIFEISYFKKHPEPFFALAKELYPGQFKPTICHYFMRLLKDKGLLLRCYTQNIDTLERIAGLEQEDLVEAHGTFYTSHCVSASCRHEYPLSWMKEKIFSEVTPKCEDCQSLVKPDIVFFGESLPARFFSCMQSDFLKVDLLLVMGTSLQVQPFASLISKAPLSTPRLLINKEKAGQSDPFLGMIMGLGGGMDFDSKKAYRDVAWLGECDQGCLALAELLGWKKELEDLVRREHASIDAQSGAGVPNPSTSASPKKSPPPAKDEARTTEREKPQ
In words: Inhibition of His6-tagged/TEV fused SIRT2 (unknown origin) expressed in Escherichia coli BL21 (DE3) preincubated for 15 mins followed by NAD+ addition and measured after 30 mins by FLucK529Ac based luminescence assay.

Assay [3] deals with T3, NAD-dependent protein deacetylase sirtuin-3, mitochondrial (Homo sapiens, UniProt Q9NTG7).
T3 sequence (Q9NTG7 whole entry): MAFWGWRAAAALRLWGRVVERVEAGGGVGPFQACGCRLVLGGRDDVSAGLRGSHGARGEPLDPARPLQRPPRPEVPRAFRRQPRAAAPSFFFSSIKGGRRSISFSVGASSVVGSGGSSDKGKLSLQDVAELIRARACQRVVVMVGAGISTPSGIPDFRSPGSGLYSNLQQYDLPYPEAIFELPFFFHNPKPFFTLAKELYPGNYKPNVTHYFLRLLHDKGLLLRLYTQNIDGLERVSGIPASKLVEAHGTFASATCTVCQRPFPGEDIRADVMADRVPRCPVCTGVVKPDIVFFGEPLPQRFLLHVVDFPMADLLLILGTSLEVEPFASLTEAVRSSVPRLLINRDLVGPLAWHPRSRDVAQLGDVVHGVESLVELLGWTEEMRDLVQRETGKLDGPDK
In words: Inhibition of His6-tagged/TEV fused SIRT3 (unknown origin) expressed in Escherichia coli BL21 (DE3) preincubated for 15 mins followed by NAD+ addition and measured after 30 mins by FLucK529Ac based luminescence assay.

Take `N#Cc1cccc(CN2CC(C(N)=O)Oc3ccccc32)c1` (configuration not stated): the values for the IC50 in assay [1], in assay [2] and in assay [3] were 0.43 µM, 11.2 µM and above 60 µM, respectively.

Take `COc1cccc(CN2CC(C(N)=O)Oc3ccccc32)c1` (configuration not stated): the IC50 is 2.13 µM in assay [1], 15.4 µM in assay [2] and above 60 µM in assay [3].

Take `CC(=O)Nc1ccccc1CN1CC(C(N)=O)Oc2ccccc21` (configuration not stated): the concentration for half-maximal inhibition (IC50) in assay [1] was 31.6 µM; in assay [2], above 60 µM; in assay [3], above 60 µM.

Consider `CC(C)(C)OC(=O)c1ccc(CN2CC(C(N)=O)Oc3ccccc32)cc1` (configuration not stated), for which the IC50 in assay [1] was 20.1 µM; in assay [2], 42 µM; in assay [3] it was above 60 µM.

On to `NC(=O)C1CN(Cc2ccc([N+](=O)[O-])cc2)c2ccccc2O1` (configuration not stated), for which the IC50 in assay [1] is 1.06 µM; in assay [2] it was 34.7 µM; in assay [3], above 60 µM.

For the molecule `CC(=O)Nc1nc(CN2CC(C(N)=O)Oc3ccccc32)cs1` (configuration not stated), the figures for the IC50 in assay [1] and in assay [2] were 0.62 µM and above 60 µM, respectively.

With `COC(=O)c1ccccc1CN1CC(C(N)=O)Oc2ccccc21` (configuration not stated), the IC50 in assay [1] was 0.49 µM; in assay [2], above 60 µM; in assay [3], above 60 µM.

Regarding `NC(=O)C1CN(Cc2cccc(Br)c2)c2ccccc2O1` (configuration not stated), the IC50 is 1.27 µM in assay [1], 1.76 µM in assay [2] and above 60 µM in assay [3].

For `NC(=O)C1CN(Cc2ccccc2Cl)c2ccccc2O1` (configuration not stated), the IC50 is 0.67 µM in assay [1], 33.6 µM in assay [2] and above 60 µM in assay [3].

On to `NC(=O)C1CN(Cc2cn(Cc3ccccc3)nn2)c2ccccc2O1` (configuration not stated), for which the IC50 was 8.05 µM in assay [1], 41.9 µM in assay [2] and above 60 µM in assay [3].

With `CC(C)(C)OC(=O)CN1CC(C(N)=O)Oc2ccccc21` (configuration not stated), the IC50 in assay [1], in assay [2] and in assay [3] was above 60 µM each time.

With `N#Cc1ccccc1CN1CC(C(N)=O)Oc2ccccc21` (stereo in doubt; form 2), the IC50 in assay [1] is 0.11 µM; in assay [2], 34 µM; in assay [3], above 60 µM.

`CC(=O)Nc1ccc(CN2CC(C(N)=O)Oc3ccccc32)cc1` (configuration not stated): the figures for the IC50 in assay [1], in assay [2] and in assay [3] were 10.4 µM, above 60 µM and above 60 µM, respectively.

Consider `NC(=O)C1CN(Cc2ccc(-c3ccccc3)cc2)c2ccccc2O1` (configuration not stated), for which the concentration for half-maximal inhibition (IC50) in assay [1], in assay [2] and in assay [3] was above 60 µM each time.

Consider `NC(=O)C1CN(Cc2ccc3nonc3c2)c2ccccc2O1` (configuration not stated), for which the IC50 is above 60 µM in assay [1], 0.6 µM in assay [2] and above 60 µM in assay [3].

For `NC(=O)C1CN(Cc2ccc(C(F)(F)F)cc2)c2ccccc2O1` (configuration not stated), the figures for the IC50 in assay [1], in assay [2] and in assay [3] were 28.5 µM, 22.8 µM and above 60 µM, respectively.

Consider `NC(=O)C1CN(Cc2ccccc2O)c2ccccc2O1` (configuration not stated), for which the IC50 is 0.82 µM in assay [1], 12.3 µM in assay [2] and above 60 µM in assay [3].

In the case of `NC(=O)C1CNc2ccccc2O1` (configuration not stated), the IC50 in assay [1], in assay [2] and in assay [3] was above 60 µM in each case.

With `NC(=O)C1CN(S(=O)(=O)c2cccc3ccccc23)c2ccccc2O1` (configuration not stated), the IC50 in assay [1], in assay [2] and in assay [3] was above 60 µM in each case.

`COc1ccc(NC(=O)N2CC(C(N)=O)Oc3ccccc32)cc1` (configuration not stated): the IC50 in assay [1], in assay [2] and in assay [3] was above 60 µM each time.

On to `O=C(O)C1CN(Cc2ccccc2)c2ccccc2O1` (configuration not stated), for which the IC50 in assay [1], in assay [2] and in assay [3] was above 60 µM throughout.

With `NC(=O)C1CN(Cc2ccccc2Br)c2ccccc2O1` (configuration not stated), the IC50 was 0.56 µM in assay [1], 16.6 µM in assay [2] and above 60 µM in assay [3].

With `CN(C)C(=O)C1CN(Cc2ccccc2)c2ccccc2O1` (configuration not stated), the IC50 in assay [1], in assay [2] and in assay [3] was above 60 µM each time.

Consider `NC(=O)C1CN(C(=O)c2cccnc2)c2ccccc2O1` (configuration not stated), for which the IC50 in assay [1], in assay [2] and in assay [3] was above 60 µM each time.

Take `Cc1ccc(S(=O)(=O)N2CC(C(N)=O)Oc3ccccc32)cc1` (configuration not stated): the IC50 in assay [1], in assay [2] and in assay [3] was above 60 µM in each case.

For `C#CCN1CC(C(N)=O)Oc2ccccc21` (configuration not stated), the IC50 in assay [1], in assay [2] and in assay [3] was above 60 µM each time.

In the case of `CCOC(=O)C1CN(Cc2ccccc2)c2ccccc2O1` (configuration not stated), the IC50 in assay [1], in assay [2] and in assay [3] was above 60 µM throughout.

For `NC(=O)C1CN(Cc2cnnn2Cc2ccccc2)c2ccccc2O1` (configuration not stated), the results for the IC50 in assay [1], in assay [2] and in assay [3] were 14.1 µM, 32.6 µM and above 60 µM, respectively.

Regarding `N#Cc1ccccc1CN1CC(C(N)=O)Oc2ccccc21` (stereo in doubt; form 1), the IC50 in assay [1] was 47.3 µM; in assay [2] it was 47.3 µM; in assay [3] it was above 60 µM.

In the case of `NC(=O)C1CN(Cc2csc(N)n2)c2ccccc2O1` (configuration not stated), the values for the IC50 in assay [1], in assay [2] and in assay [3] were 1.48 µM, above 60 µM and above 60 µM, respectively.

As for `NC(=O)C1CN(Cc2cccc([N+](=O)[O-])c2)c2ccccc2O1` (configuration not stated), the values for the IC50 in assay [1], in assay [2] and in assay [3] were 0.23 µM, 4.19 µM and above 60 µM, respectively.

On to `CN1CC(C(N)=O)Oc2ccccc21` (configuration not stated), for which the IC50 in assay [1], in assay [2] and in assay [3] was above 60 µM each time.

`COc1ccc(CN2CC(C(N)=O)Oc3ccccc32)cc1` (configuration not stated): the IC50 in assay [1] was 1.45 µM; in assay [2] it was 31.8 µM; in assay [3], above 60 µM.

Regarding `Cc1ccc(NC(=O)N2CC(C(N)=O)Oc3ccccc32)cc1` (configuration not stated), the half-inhibitory concentration (IC50) in assay [1], in assay [2] and in assay [3] was above 60 µM throughout.

Turning to `O=C(C1CN(Cc2ccccc2)c2ccccc2O1)N1CCCCC1` (configuration not stated), the IC50 in assay [1], in assay [2] and in assay [3] was above 60 µM each time.

For the molecule `NC(=O)C1CN(Cc2ccccc2N)c2ccccc2O1` (configuration not stated), the IC50 in assay [1] is 4.91 µM; in assay [2], 36.1 µM; in assay [3], above 60 µM.

As to `NC(=O)C1CN(Cc2ccccc2I)c2ccccc2O1` (configuration not stated), the values for the IC50 in assay [1], in assay [2] and in assay [3] were 0.47 µM, above 60 µM and above 60 µM, respectively.

In the case of `CC(=O)Nc1cccc(CN2CC(C(N)=O)Oc3ccccc32)c1` (configuration not stated), the IC50 was 2.4 µM in assay [1], above 60 µM in assay [2] and above 60 µM in assay [3].

Turning to `O=C(O)C1CNc2ccccc2O1` (configuration not stated), the IC50 in assay [1], in assay [2] and in assay [3] was above 60 µM each time.

Regarding `NC(=O)C1CN(Cc2ccccc2)c2ccccc2O1` (configuration not stated), the half-inhibitory concentration (IC50) in assay [1] is 8.54 µM; in assay [2] it was above 60 µM; in assay [3], above 60 µM.

Consider `NC(=O)C1CN(Cc2cccnc2)c2ccccc2O1` (configuration not stated), for which the IC50 in assay [1] was 4.7 µM; in assay [2], 58 µM; in assay [3], above 60 µM.

Take `Cc1cccc(C)c1CN1CC(C(N)=O)Oc2ccccc21` (configuration not stated): the IC50 was 37.4 µM in assay [1], above 60 µM in assay [2] and above 60 µM in assay [3].

As to `NC(=O)C1CN(C(=O)c2ccccc2)c2ccccc2O1` (configuration not stated), the IC50 in assay [1], in assay [2] and in assay [3] was above 60 µM throughout.

For the molecule `NC(=O)C1CN(Cc2ccccc2[N+](=O)[O-])c2ccccc2O1` (configuration not stated), the 50% inhibitory concentration (IC50) in assay [2] was 10.6 µM; in assay [3] it was above 60 µM.

In the case of `COc1ccc(C(=O)N2CC(C(N)=O)Oc3ccccc32)cc1` (configuration not stated), the IC50 in assay [1] and in assay [2] was above 60 µM throughout.
